Experimental data taken from ChEMBL document CHEMBL1201862, “PubChem BioAssay data set” (2004).
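Exposure lasted 48 hours, with cells grown in 96-well plates and compounds tested at five concentrations. GI50: concentration for 50% inhibition of growth.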 Active and inactive are the calls of the source. Cut-off read from the data, not from the text of the source: active = GI50 up to about 1.1 µM and inactive = higher.

Key:
Test in all cases: NCI tumour cell line growth inhibition, 48 h
OVCAR-5 = system: OVCAR-5
HT-29 = system: HT-29
K562 = system: K562
CAKI-1 = system: CAKI-1
SNB-19 = system: SNB-19
HCT-15 = system: HCT-15
RXF 393 = system: RXF 393
PC-3 = system: PC-3
SN12C = system: SN12C
UO-31 = system: UO-31
M14 = system: M14
TK-10 = system: TK-10
MOLT-4 = system: MOLT-4
SW-620 = system: SW-620
SF-268 = system: SF-268
LOX IMVI = system: LOX IMVI
IGROV-1 = system: IGROV-1
A549 = system: A549
786-0 = system: 786-0
SR = system: SR

Row | Structure (SMILES) | GI50 (OVCAR-5) | GI50 (HT-29) | GI50 (K562) | GI50 (CAKI-1) | GI50 (SNB-19) | GI50 (HCT-15) [µM] | GI50 (RXF 393) | GI50 (PC-3) | GI50 (SN12C) | GI50 (UO-31) | GI50 (M14) | GI50 (TK-10) | GI50 (MOLT-4) | GI50 (SW-620) | GI50 (SF-268) | GI50 (LOX IMVI) | GI50 (IGROV-1) | GI50 (A549) | GI50 (786-0) | GI50 (SR)
1 | CCOC(=O)c1c(-c2cccc(Cl)c2)c(C(=O)OC)c(C)c2sc(C=O)nc12 | 17.5 µM (inactive) | 21 µM (inactive) | 27.5 µM (inactive) | 17.5 µM (inactive) | 98.9 µM (inactive) | 19.8 | 23.8 µM (inactive) | 16.4 µM (inactive) | 16.6 µM (inactive) | 17.8 µM (inactive) | 17 µM (inactive) | 29.3 µM (inactive) | 12.8 µM (inactive) | 48.4 µM (inactive) | 19 µM (inactive) | 14.3 µM (inactive) | 17.5 µM (inactive) | 49.9 µM (inactive) | – | –
2 | CCOP(=O)(OCC)C(Nc1ccc(C(=O)O)cc1)c1ccc(C(Nc2ccc(C(=O)O)cc2)P(=O)(OCC)OCC)cc1 (centres undefined) | > 100 µM (inactive) | > 100 µM (inactive) | > 100 µM (inactive) | > 100 µM (inactive) | > 100 µM (inactive) | > 100 | > 100 µM (inactive) | > 100 µM (inactive) | – | > 100 µM (inactive) | > 100 µM (inactive) | > 100 µM (inactive) | > 100 µM (inactive) | > 100 µM (inactive) | > 100 µM (inactive) | > 100 µM (inactive) | > 100 µM (inactive) | > 100 µM (inactive) | > 100 µM (inactive) | –
3 | CC1(C)C=CC(=O)C(O)C(C)(C)C1=O (centres undefined) | > 100 µM (inactive) | 88.3 µM (inactive) | 30.3 µM (inactive) | > 100 µM (inactive) | > 100 µM (inactive) | 51.2 | 66.5 µM (inactive) | > 100 µM (inactive) | > 100 µM (inactive) | > 100 µM (inactive) | > 100 µM (inactive) | 51.5 µM (inactive) | 7.05 µM (inactive) | 77.6 µM (inactive) | 30.1 µM (inactive) | 28.7 µM (inactive) | 89.1 µM (inactive) | > 100 µM (inactive) | 96.2 µM (inactive) | –
4 | N#Cc1c(-c2ccc([N+](=O)[O-])cc2)c(C#N)c(=O)n(NS(=O)(=O)c2ccccc2)c1O | > 100 µM (inactive) | > 100 µM (inactive) | > 100 µM (inactive) | > 100 µM (inactive) | 18.5 µM (inactive) | > 100 | > 100 µM (inactive) | > 100 µM (inactive) | > 100 µM (inactive) | – | > 100 µM (inactive) | > 100 µM (inactive) | > 100 µM (inactive) | > 100 µM (inactive) | – | > 100 µM (inactive) | > 100 µM (inactive) | > 100 µM (inactive) | > 100 µM (inactive) | –
5 | COc1cc(C2C3=C(N=C4SC(C(C)=O)=C(C)N42)c2ccccc2CC3)cc(OC)c1OC (centres undefined) | > 100 µM (inactive) | 64.4 µM (inactive) | 26.4 µM (inactive) | – | > 100 µM (inactive) | – | 46.8 µM (inactive) | > 100 µM (inactive) | > 100 µM (inactive) | > 100 µM (inactive) | > 100 µM (inactive) | – | > 10 µM (inactive) | > 100 µM (inactive) | > 100 µM (inactive) | > 100 µM (inactive) | 52 µM (inactive) | > 100 µM (inactive) | > 100 µM (inactive) | –
6 | O=C1Nc2ccccc2C(=O)/C1=C/NC(=S)NCCc1ccccc1 | > 100 µM (inactive) | > 100 µM (inactive) | – | > 100 µM (inactive) | > 100 µM (inactive) | > 100 | – | 98.4 µM (inactive) | > 100 µM (inactive) | > 100 µM (inactive) | > 100 µM (inactive) | 22.1 µM (inactive) | 4.03 µM (inactive) | > 100 µM (inactive) | – | > 100 µM (inactive) | > 100 µM (inactive) | > 100 µM (inactive) | > 100 µM (inactive) | –
7 | O=c1cc(N2CCCC2)[nH]c(=O)n1-c1ccccc1 | > 100 µM (inactive) | > 100 µM (inactive) | > 100 µM (inactive) | > 100 µM (inactive) | > 100 µM (inactive) | > 100 | – | > 100 µM (inactive) | > 100 µM (inactive) | – | > 100 µM (inactive) | > 100 µM (inactive) | > 100 µM (inactive) | > 100 µM (inactive) | > 10 µM (inactive) | > 100 µM (inactive) | > 100 µM (inactive) | > 100 µM (inactive) | > 100 µM (inactive) | > 100 µM (inactive)
8 | Oc1ccc(C(=C(Br)c2ccccc2)c2ccc(O)cc2)cc1 | 17.3 µM (inactive) | 1.91 µM (inactive) | 2.78 µM (inactive) | 16.6 µM (inactive) | 5.15 µM (inactive) | 3.72 | 12.1 µM (inactive) | 7.16 µM (inactive) | 5.92 µM (inactive) | 6.59 µM (inactive) | 4.15 µM (inactive) | 13.8 µM (inactive) | 5.48 µM (inactive) | 3.57 µM (inactive) | 4.9 µM (inactive) | 4.08 µM (inactive) | 4.45 µM (inactive) | 4.4 µM (inactive) | 9.77 µM (inactive) | –
9 | C=CC1=C(C)c2cc3[nH]c(c4c5nc(cc6[nH]c(cc1n2)c(C)c6CC)C=C5C(=O)C4C(=O)OC)C(CCC(=O)OC/C=C(\C)CCCC(C)CCCC(C)CCCC(C)C)C3C.C=CC1=C(C)c2cc3[nH]c(c4c5nc(cc6[nH]c(cc1n2)c(C=O)c6CC)C=C5C(=O)C4C(=O)OC)C(CCC(=O)OC/C=C(\C)CCCC(C)CCCC(C)CCCC(C)C)C3C (centres undefined) | > 100 µM (inactive) | > 100 µM (inactive) | > 100 µM (inactive) | > 100 µM (inactive) | > 100 µM (inactive) | > 100 | – | > 100 µM (inactive) | > 100 µM (inactive) | > 100 µM (inactive) | > 100 µM (inactive) | > 100 µM (inactive) | > 100 µM (inactive) | > 100 µM (inactive) | > 100 µM (inactive) | > 100 µM (inactive) | 38.9 µM (inactive) | > 100 µM (inactive) | > 100 µM (inactive) | > 100 µM (inactive)
10 | CC(C)=CCc1c(O)c(CC2=C(O)C(CC=C(C)C)(C(=O)C(C)C)C(O)=C(C)C2=O)c(O)c(C(=O)C(C)C)c1O (centres undefined) | 11.9 µM (inactive) | 3.88 µM (inactive) | 8.61 µM (inactive) | 17.5 µM (inactive) | 7.73 µM (inactive) | 11.7 | 12.1 µM (inactive) | 5.66 µM (inactive) | 18.8 µM (inactive) | 7.59 µM (inactive) | 11.4 µM (inactive) | 13.2 µM (inactive) | 2.31 µM (inactive) | 24 µM (inactive) | 9.86 µM (inactive) | 9.48 µM (inactive) | 10.9 µM (inactive) | 14.1 µM (inactive) | 10.7 µM (inactive) | –
11 | O=C(C1C(c2ccccc2)N1C(c1ccccc1)c1ccccc1)C1C(c2ccccc2)N1C(c1ccccc1)c1ccccc1 (centres undefined) | 32.1 µM (inactive) | 13.6 µM (inactive) | 3.66 µM (inactive) | – | 97.5 µM (inactive) | > 10 | – | 23.9 µM (inactive) | 21.8 µM (inactive) | 21 µM (inactive) | 37.2 µM (inactive) | 24.8 µM (inactive) | 6.9 µM (inactive) | 5.14 µM (inactive) | 24.7 µM (inactive) | – | > 10 µM (inactive) | 39 µM (inactive) | 21.3 µM (inactive) | 3.51 µM (inactive)
12 | N#Cc1nnn(-c2ccc(Br)cc2)c1O | > 100 µM (inactive) | > 100 µM (inactive) | > 100 µM (inactive) | > 100 µM (inactive) | > 100 µM (inactive) | > 100 | > 100 µM (inactive) | > 100 µM (inactive) | > 100 µM (inactive) | > 100 µM (inactive) | > 100 µM (inactive) | > 100 µM (inactive) | 10 µM (inactive) | > 100 µM (inactive) | > 100 µM (inactive) | > 100 µM (inactive) | > 100 µM (inactive) | > 100 µM (inactive) | > 100 µM (inactive) | –
13 | CC(=O)[C@H]1CC[C@@H]2[C@]1(C)CC=C1[C@]23C=C[C@]2(C[C@@H](O)CC[C@]12C)C(C(=O)O)C3C(=O)O (some centres undefined) | > 100 µM (inactive) | > 100 µM (inactive) | > 100 µM (inactive) | > 100 µM (inactive) | > 100 µM (inactive) | > 100 | – | > 100 µM (inactive) | > 100 µM (inactive) | > 100 µM (inactive) | > 100 µM (inactive) | > 100 µM (inactive) | > 100 µM (inactive) | > 100 µM (inactive) | > 100 µM (inactive) | > 100 µM (inactive) | > 100 µM (inactive) | > 100 µM (inactive) | > 100 µM (inactive) | –
14 | COC(=O)[C@H](Cc1ccccc1)NP(=O)(O)OCC1C=CC(n2cc(C)c(=O)[nH]c2=O)O1 (some centres undefined) | > 100 µM (inactive) | > 100 µM (inactive) | > 100 µM (inactive) | > 100 µM (inactive) | > 100 µM (inactive) | > 100 | > 100 µM (inactive) | > 100 µM (inactive) | > 100 µM (inactive) | > 100 µM (inactive) | > 100 µM (inactive) | > 100 µM (inactive) | > 100 µM (inactive) | > 100 µM (inactive) | > 100 µM (inactive) | > 100 µM (inactive) | > 100 µM (inactive) | > 100 µM (inactive) | > 100 µM (inactive) | –
15 | C=C[C@@](C)(/C=C/c1ccc(O)cc1)CCC=C(C)C [BAKUCHIOL] | 19.2 µM (inactive) | 16.5 µM (inactive) | 15.7 µM (inactive) | 18.6 µM (inactive) | 19.1 µM (inactive) | 16.8 | – | 16.8 µM (inactive) | 18.5 µM (inactive) | 17.7 µM (inactive) | 19.1 µM (inactive) | 17.1 µM (inactive) | 13.1 µM (inactive) | 17 µM (inactive) | – | 18.2 µM (inactive) | 15.8 µM (inactive) | 17.8 µM (inactive) | – | 16.5 µM (inactive)
